{
  "source": "patent US12648571B2",
  "about": "“Compositions including antimicrobial polymer-peptide conjugates and uses thereof” (University of Puerto Rico, priority 2020, dated 2026)",
  "key": {"[1]": {"test_system": "E. coli (ATCC 25922)", "format": "cell-based, Escherichia coli", "conditions": "for Minimum Inhibition Concentration (MIC): 24 hours, 1.0×10^8 CFU/mL; for kind of antibacterial effect (growth curves): peptides: after 12 hours of growth; for bacterial growth (growth curves): up to 24 hours, 37° C.", "from_the_text": "(§1) To determine the antimicrobial activity of the peptides against the pathogenic bacteria P. aeruginosa (ATCC 27853)22 and E. coli (ATCC 25922)23, the following materials were used: Costar 96-well plates Flat Bottom (Sterile Low Evaporation Lid, Corning, USA.), Calgary Biofilm Device (Innovotech Inc.), Glycerol 100% purity. The nutrient agar and broth used were BBL TSA II Trypticase Soy Agar (TSA) and BBL Trypticase Soy Broth (TSB) and were purchased from Becton, Dickinson and Company (BD).\n(§2) For these assays, bacteria of interest were thawed, and serial cultured to reach optimal metabolic activity after being defrosted. Optical Density (O.D.) measured with a Genesys 10S UV-VIS Spectrophotometer (O.D.600 nm) was utilized as a measure of bacterial concentration, 1.0×10^8 CFU/mL, as standardized and approved by the Clinical and Laboratory Standards Institute (CLSI).^28 The final concentration of the solvent (vehicle control) was DMSO 10%.\n(§3) To create growth curves of the bacteria with and without peptides and to determine the lowest concentration in which these antimicrobial peptides present inhibition of bacterial growth, Minimum Inhibition Concentration (MIC) testing was carried out. After thawing and incubating at 37° C. for 24 hours, and after achieving target O.D., the bacteria were placed on the 96-well plate with lid together with the peptides in various concentrations. Finally, the 96-well plate was taken to the Synergy H1TM Hybrid Multi-Mode Microplate Reader to observe and study the antibacterial effect of the peptides at 37° C. during different time points (0.5 h, 5 h, 12 h, 18 h and 24 h). This process that was used in the same in the evaluation of growth using the MH5C-Cys."}, "[2]": {"test_system": "P. aeruginosa (ATCC 27853)", "format": "cell-based, Pseudomonas aeruginosa", "conditions": "for Minimum Inhibition Concentration (MIC): 24 hours, 1.0×10^8 CFU/mL; for kind of antibacterial effect (growth curves): peptides: after 12 hours of growth; for bacterial growth (growth curves): up to 24 hours, 37° C.", "from_the_text": "as §1, §2, §3"}, "[3]": {"test_system": "P. aeruginosa biofilm", "format": "cell-based, Pseudomonas aeruginosa", "conditions": "for Minimum Biofilm Eradication Concentration (MBEC): 24 h challenge", "description": "(§4) The assay was conducted according to the MBEC protocol as supplied by the manufacturer. Inoculum of each bacterium was prepared in TSB (Tryptic Soy Broth) to a final density of 1.0×10^6. In each well of the 96 well plate, 150 of the inoculated media was transferred. Assay plates were placed in an incubator for 72 h to allow growth and comparison of biofilms was performed for each bacteria strain. After 72 h, the PEG lid of the MBEC assay was transferred to a ‘challenge’ plate. Essentially, serial dilutions of each conjugated (4 kDa and 7 kDa), antimicrobial peptide, and PEG polymers were prepared in TSB to a final volume in the well plates of 200 μL (control and conjugates at 90 μM, 300 μM, and 500 μM). After exposure of the biofilm to the antimicrobial challenge for 24 h, the PEG lid was removed from the challenge plate, and the optical density measurements for each plate were recorded at 650 nm. Clear wells were taken as evidence of biofilm eradication, and MBEC values were assigned as the lowest concentration at which no growth was observed after 24 h of incubation.^31-32"}, "[4]": {"test_system": "E. coli biofilm", "format": "cell-based, Escherichia coli", "conditions": "for Minimum Biofilm Eradication Concentration (MBEC): 24 h challenge", "description": "as §4"}, "[5]": {"test": "Circular Dichroism (CD) spectroscopy, secondary structure (K2D3)", "format": "physicochemical", "conditions": "90 μM, TFE/np water 50% v/v, 20° C.", "description": "Circular Dichroism spectra were recorded on a Jasco J-1500 CD Spectrometer (Jasco, Inc., Easton, MD). Both peptides (MH5C, MH5C-Cys) were dissolved according to the protocol published by Dennison et al. (2015) with 2,2,2-Trifluoroethanol and np water (TFE/np water mixture; 50% v/v) as co-solvent for this peptide.^26 The final concentration was set to 90 μM and the samples were ultra-centrifuged (29,100 rpm) for 1 hour at 20° C. Subsequently, 400 μL of the supernatant of each peptide was added to a rectangular quartz cell with 1 mm path length to evaluate secondary structures. The wavelength ranged from 250-190 nm and scanning speed was 50 nm/min at 20° C. The data obtained were triplicated and then averaged for each sample. In addition, the thermodynamics and unfolding of peptides was studied with this equipment. This technique was used to observe the secondary structure at wavelength complete spectra as a function of temperature.^27 The temperature range from 20° C. to 90° C. was used.\nFor the secondary structure estimation, the K2D3 method was utilized as described elsewhere.^40 After obtaining the data, a predictive method that utilizes the information from the database Protein Data Bank (PDB) was employed. With this information, a theoretical prediction of CD, known as DichroCalc was obtained.^41 Then, the method K2D3 was utilized, which can predict secondary structures of peptides and proteins in recorded wavelengths between 200 nm to 240 nm in a non-redundant form. The results of these calculations are the predicted percentages for alpha-helix and beta-strand content.^40 The following equation was employed for this prediction:^42"}, "[6]": {"test": "Zeta potential of peptides", "format": "physicochemical", "conditions": "sample pH 4.5 (MH5C), 5.9 (MH5C-Cys)", "description": "Likewise, zeta potential was conducted in order to determine the overall charge of the modified and unmodified peptide. The zeta potential is highly dependent on the pH as it directly affects the overall charge of the colloidal species. Therefore, it was of interest to know the isoelectric point of the peptides. Using ExPASy ProtParam tool (https://web.expasy.org/protparam/), the theoretical isoelectric points of MH5C and MH5C-Cys, were determined at 3.42 in both cases. In this study the pH of each sample, MH5C was 4.5 and 5.9 for the MH5C-Cys. This is an important condition for the stability of the formulation, as no precipitation will occur under the conditions of the experiment.^36 MH5C had positive zeta potential values (46.6±0.9) compared to the MH5C-Cys (−94±4)."}, "[7]": {"test": "Dynamic Light Scattering (DLS) of peptides in solution", "format": "physicochemical", "conditions": "1.0 mg/mL in DMSO/np water 20% v/v; for Polydispersity Index (PDI): individual peak method", "description": "To determine the stability of the peptide in solution, DLS was conducted for both peptides (MH5C and MH5C-Cys).\nAMPs were dissolved in DMSO and nanopure water (DMSO/np water mixture; 20% v/v) with the final concentration at 1.0 mg/mL. First the samples were ultra-centrifuged (29,100 rpm, 1 hour at 20° C.) and later the size average of these biomolecules was studied in solution using a Malvern Zetasizer Nano instrument (4 mW 632.8 nm laser). The individual peak method was used to determine the Polydispersity Index (PdI)."}, "[8]": {"test_system": "E. coli biofilm", "test": "MBIC assay (Calgary Biofilm Device)", "format": "cell-based, Escherichia coli", "conditions": "90 μM and 300 μM", "description": "(§5) MBIC (Minimum Biofilm Inhibitory Concentration) was determined by the adherence assay using the Calgary Biofilm Device (Innovotech Inc.). In this assay, the bacteria and compounds (MH5C-Cys and both PEG conjugates) were placed together in the assay plate for 72 h to allow growth. Afterwards, CFU (Colony Forming Unit) and optical density measurements for each well were recorded at 650 nm and clear wells and growth inhibition curves were taken as evidence of biofilm inhibition."}, "[9]": {"test_system": "P. aeruginosa biofilm", "test": "MBIC assay (Calgary Biofilm Device)", "format": "cell-based, Pseudomonas aeruginosa", "conditions": "90 μM and 300 μM", "description": "as §5"}},
  "note": "No end group written: not given here.",
  "data": [
    {"substance": "KRWRIRVRVIRKC [Tet-20, KRWRIRVRVIRKC]", "values": [
      {"measurement": "Minimum Inhibition Concentration (MIC)", "setting": "[1]", "result": 15, "unit": "µM"},
      {"measurement": "Minimum Inhibition Concentration (MIC)", "setting": "[2]", "result": 40, "unit": "µM"},
      {"measurement": "kind of effect in MBEC assay", "setting": "[3]; 90 μM, 180 μM and 300 μM, 24 h", "result": "bactericidal effect"},
      {"measurement": "Minimum Biofilm Eradication Concentration (MBEC)", "setting": "[3]", "result": 300, "unit": "µM"},
      {"measurement": "kind of effect in MBEC assay", "setting": "[4]; 90 μM and 300 μM, 24 h", "result": "bactericidal effect"},
      {"measurement": "Minimum Biofilm Eradication Concentration (MBEC)", "setting": "[4]", "result": 300, "unit": "µM"}
    ]},
    {"substance": "ILGPVLGLVSDTLDDVLGILC-OH [MH5C-Cys]", "values": [
      {"measurement": "α helix structure", "setting": "[5]", "result": 95.36, "unit": "%"},
      {"measurement": "β strand structure", "setting": "[5]", "result": 0.02, "unit": "%"},
      {"measurement": "zeta potential", "setting": "[6]", "result": "−94±4"},
      {"measurement": "average apparent hydrodynamic diameter", "setting": "[7]", "result": "0.52 ± 0.44", "unit": "nm·days"},
      {"measurement": "Polydispersity Index (PDI)", "setting": "[7]", "result": 0.01},
      {"measurement": "Minimum Inhibition Concentration (MIC)", "setting": "[1]", "result": 90, "unit": "µM"},
      {"measurement": "kind of antibacterial effect (growth curves)", "setting": "[1]", "result": "bacteriostatic effect"},
      {"measurement": "bacterial growth (growth curves)", "setting": "[1]", "result": "did not allow bacterial growth"},
      {"measurement": "Minimum Inhibition Concentration (MIC)", "setting": "[2]", "result": 90, "unit": "µM"},
      {"measurement": "kind of antibacterial effect (growth curves)", "setting": "[2]", "result": "bacteriostatic effect"},
      {"measurement": "bacterial growth (growth curves)", "setting": "[2]", "result": "did not allow bacterial growth"},
      {"measurement": "time during which bacterial growth was not allowed (MBEC assay)", "setting": "[3]", "result": "8 to 10", "unit": "h"},
      {"measurement": "Minimum Biofilm Eradication Concentration (MBEC)", "setting": "[3]", "result": 500, "unit": "µM"},
      {"measurement": "inhibition of biofilm formation (MBIC assay, CFU)", "setting": "[8]", "result": "does not possess a significant inhibition"},
      {"measurement": "time during which bacterial growth was not allowed (MBEC assay)", "setting": "[4]", "result": "8 to 10", "unit": "h"},
      {"measurement": "Minimum Biofilm Eradication Concentration (MBEC)", "setting": "[4]", "result": 500, "unit": "µM"},
      {"measurement": "inhibition of biofilm formation (MBIC assay, CFU)", "setting": "[9]", "result": "does not possess a significant inhibition"}
    ]},
    {"substance": "ILGPVLGLVSDTLDDVLGIL-OH [MH5C]", "values": [
      {"measurement": "α helix structure", "setting": "[5]", "result": 95.22, "unit": "%"},
      {"measurement": "β strand structure", "setting": "[5]", "result": 0.02, "unit": "%"},
      {"measurement": "zeta potential", "setting": "[6]", "result": "46.6±0.9"},
      {"measurement": "average apparent hydrodynamic diameter", "setting": "[7]", "result": "0.72 ± 0.11", "unit": "nm·days"},
      {"measurement": "Polydispersity Index (PDI)", "setting": "[7]", "result": 0.03},
      {"measurement": "Minimum Inhibition Concentration (MIC)", "setting": "[1]", "result": 90, "unit": "µM"},
      {"measurement": "kind of antibacterial effect (growth curves)", "setting": "[1]", "result": "bacteriostatic effect"},
      {"measurement": "bacterial growth (growth curves)", "setting": "[1]", "result": "did not allow bacterial growth"},
      {"measurement": "Minimum Inhibition Concentration (MIC)", "setting": "[2]", "result": 90, "unit": "µM"},
      {"measurement": "kind of antibacterial effect (growth curves)", "setting": "[2]", "result": "bacteriostatic effect"},
      {"measurement": "bacterial growth (growth curves)", "setting": "[2]", "result": "did not allow bacterial growth"}
    ]}
  ]
}
